According to ChEMBL document CHEMBL1201862, “PubChem BioAssay data set” (2004):
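Test compounds were applied to cells in 96-well plates for 48 hours at 5 doses. At the GI50, growth is halved.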 Active and inactive are the calls of the source. Cut-off read from the data, not from the text of the source: active = GI50 up to about 1.1 µM and inactive = higher.

Tests used:
Experiment in all cases: DTP human tumour cell line panel, 48 h
NCI-H460 = tested on: NCI-H460
IGROV-1 = tested on: IGROV-1
U-251 = tested on: U-251
ACHN = tested on: ACHN
TK-10 = tested on: TK-10
HT-29 = tested on: HT-29
UACC-62 = tested on: UACC-62
EKVX = tested on: EKVX
CCRF-CEM = tested on: CCRF-CEM
SF-268 = tested on: SF-268
OVCAR-3 = tested on: OVCAR-3
NCI/ADR-RES = tested on: NCI/ADR-RES
SK-MEL-5 = tested on: SK-MEL-5
SK-MEL-28 = tested on: SK-MEL-28
M14 = tested on: M14
HOP-62 = tested on: HOP-62
OVCAR-5 = tested on: OVCAR-5
SNB-75 = tested on: SNB-75
DU-145 = tested on: DU-145
SF-295 = tested on: SF-295
HCC 2998 = tested on: HCC 2998
SF-539 = tested on: SF-539
MDA-MB-231 = tested on: MDA-MB-231
SK-OV-3 = tested on: SK-OV-3
Malme-3M = tested on: Malme-3M
NCI-H23 = tested on: NCI-H23
NCI-H522 = tested on: NCI-H522
UO-31 = tested on: UO-31
A549 = tested on: A549
A498 = tested on: A498
MOLT-4 = tested on: MOLT-4
MCF7 = tested on: MCF7
CAKI-1 = tested on: CAKI-1
SW-620 = tested on: SW-620
K562 = tested on: K562
SR = tested on: SR
786-0 = tested on: 786-0
NCI-H226 = tested on: NCI-H226
OVCAR-4 = tested on: OVCAR-4
UACC-257 = tested on: UACC-257
SNB-19 = tested on: SNB-19
COLO 205 = tested on: COLO 205
T47D = tested on: T47D
KM12 = tested on: KM12
MDA-N = tested on: MDA-N
SK-MEL-2 = tested on: SK-MEL-2
OVCAR-8 = tested on: OVCAR-8
HL-60 = tested on: HL-60
HCT-15 = tested on: HCT-15
BT-549 = tested on: BT-549
SN12C = tested on: SN12C
PC-3 = tested on: PC-3
HCT-116 = tested on: HCT-116
Hs-578T = tested on: Hs-578T
MDA-MB-435 = tested on: MDA-MB-435
RPMI-8226 = tested on: RPMI-8226
RXF 393 = tested on: RXF 393
LOX IMVI = tested on: LOX IMVI
HOP-92 = tested on: HOP-92

O=C(Nc1ccc(Br)c2ccccc12)c1ccc2ccccc2c1O
GI50 (NCI-H460): 2.23 µM (inactive) | GI50 (IGROV-1): 2.9 µM (inactive) | GI50 (U-251): 1.73 µM (inactive) | GI50 (ACHN): 3.09 µM (inactive) | GI50 (TK-10): 3.19 µM (inactive) | GI50 (HT-29): 3.67 µM (inactive) | GI50 (UACC-62): 1.82 µM (inactive) | GI50 (EKVX): 3.13 µM (inactive) | GI50 (CCRF-CEM): 2.86 µM (inactive) | GI50 (SF-268): 3.87 µM (inactive) | GI50 (OVCAR-3): 3.37 µM (inactive) | GI50 (NCI/ADR-RES): 2.72 µM (inactive) | GI50 (SK-MEL-5): 1.61 µM (inactive) | GI50 (SK-MEL-28): 4.7 µM (inactive) | GI50 (M14): 4.63 µM (inactive) | GI50 (HOP-62): 2.32 µM (inactive) | GI50 (OVCAR-5): 2.75 µM (inactive) | GI50 (SNB-75): 2.3 µM (inactive) | GI50 (DU-145): 3.89 µM (inactive) | GI50 (SF-295): 2.05 µM (inactive) | GI50 (HCC 2998): 5.64 µM (inactive) | GI50 (SF-539): 5.16 µM (inactive) | GI50 (MDA-MB-231): 3.27 µM (inactive) | GI50 (SK-OV-3): 2.75 µM (inactive) | GI50 (Malme-3M): 1.36 µM (inactive) | GI50 (NCI-H23): 1.9 µM (inactive) | GI50 (NCI-H522): 1.71 µM (inactive) | GI50 (UO-31): 2.51 µM (inactive) | GI50 (A549): 1.77 µM (inactive) | GI50 (A498): 2.52 µM (inactive) | GI50 (MOLT-4): 2.32 µM (inactive) | GI50 (MCF7): 2.73 µM (inactive) | GI50 (CAKI-1): 3.95 µM (inactive) | GI50 (SW-620): 2.26 µM (inactive) | GI50 (K562): 2.55 µM (inactive) | GI50 (SR): 6.44 µM (inactive) | GI50 (786-0): 3.94 µM (inactive) | GI50 (NCI-H226): 1.87 µM (inactive) | GI50 (OVCAR-4): 19.4 µM (inactive) | GI50 (UACC-257): 1.95 µM (inactive) | GI50 (SNB-19): 4.17 µM (inactive) | GI50 (COLO 205): 2.11 µM (inactive) | GI50 (T47D): 1.73 µM (inactive) | GI50 (KM12): 2.9 µM (inactive) | GI50 (MDA-N): 1.7 µM (inactive) | GI50 (SK-MEL-2): 0.597 µM (active) | GI50 (OVCAR-8): 3.86 µM (inactive) | GI50 (HL-60): 3.64 µM (inactive) | GI50 (HCT-15): 2.26 µM | GI50 (BT-549): 2.83 µM (inactive) | GI50 (SN12C): 3.39 µM (inactive) | GI50 (PC-3): 1.35 µM (inactive) | GI50 (HCT-116): 2.85 µM (inactive) | GI50 (Hs-578T): 2.79 µM (inactive)

CNC(=S)/C(=N\Nc1[nH]cnc1C(N)=O)C(N)=S
GI50 (NCI-H460): 5.31 µM (inactive) | GI50 (IGROV-1): 3.56 µM (inactive) | GI50 (U-251): 30.3 µM (inactive) | GI50 (ACHN): 5.32 µM (inactive) | GI50 (MDA-MB-435): 7.03 µM (inactive) | GI50 (TK-10): 1.24 µM (inactive) | GI50 (HT-29): 16.1 µM (inactive) | GI50 (UACC-62): 3.22 µM (inactive) | GI50 (EKVX): 22.3 µM (inactive) | GI50 (CCRF-CEM): 0.689 µM (active) | GI50 (SF-268): 3.18 µM (inactive) | GI50 (OVCAR-3): 6.43 µM (inactive) | GI50 (NCI/ADR-RES): 1.36 µM (inactive) | GI50 (SK-MEL-5): 11.5 µM (inactive) | GI50 (SK-MEL-28): 69.7 µM (inactive) | GI50 (M14): 1.1 µM (active) | GI50 (HOP-62): 19.2 µM (inactive) | GI50 (OVCAR-5): > 31.6 µM (inactive) | GI50 (SNB-75): 6.82 µM (inactive) | GI50 (DU-145): 1.2 µM (inactive) | GI50 (SF-295): 3.36 µM (inactive) | GI50 (HCC 2998): 1.99 µM (inactive) | GI50 (SF-539): 5.21 µM (inactive) | GI50 (MDA-MB-231): 2.12 µM (inactive) | GI50 (SK-OV-3): 1.51 µM (inactive) | GI50 (Malme-3M): 1.1 µM (active) | GI50 (NCI-H23): 17.3 µM (inactive) | GI50 (NCI-H522): 10.9 µM (inactive) | GI50 (UO-31): 1.61 µM (inactive) | GI50 (A549): > 84.1 µM (inactive) | GI50 (RPMI-8226): 1.14 µM (inactive) | GI50 (MOLT-4): 0.711 µM (active) | GI50 (MCF7): 16.5 µM (inactive) | GI50 (CAKI-1): 1.71 µM (inactive) | GI50 (SW-620): 3.78 µM (inactive) | GI50 (K562): 0.444 µM (active) | GI50 (SR): < 0.01 µM (active) | GI50 (786-0): 7.71 µM (inactive) | GI50 (RXF 393): > 100 µM (inactive) | GI50 (NCI-H226): 5.73 µM (inactive) | GI50 (OVCAR-4): 4.17 µM (inactive) | GI50 (UACC-257): 9.62 µM (inactive) | GI50 (SNB-19): 45.3 µM (inactive) | GI50 (COLO 205): 4.57 µM (inactive) | GI50 (T47D): 11.6 µM (inactive) | GI50 (KM12): 4.09 µM (inactive) | GI50 (MDA-N): 4.34 µM (inactive) | GI50 (SK-MEL-2): 0.875 µM (active) | GI50 (OVCAR-8): 1.11 µM (active) | GI50 (HCT-15): 15.1 µM | GI50 (BT-549): 29.9 µM (inactive) | GI50 (SN12C): 2.44 µM (inactive) | GI50 (PC-3): 5.52 µM (inactive) | GI50 (LOX IMVI): 0.598 µM (active) | GI50 (HCT-116): 3.52 µM (inactive) | GI50 (Hs-578T): 9.14 µM (inactive) | GI50 (HOP-92): 3 µM (inactive)

CC(NC(=O)Cc1ccccc1)NC(=O)C(C)C(=O)NCc1ccccc1 (centres undefined)
GI50 (NCI-H460): > 100 µM (inactive) | GI50 (IGROV-1): 50.9 µM (inactive) | GI50 (U-251): 50.6 µM (inactive) | GI50 (ACHN): 52.2 µM (inactive) | GI50 (MDA-MB-435): > 100 µM (inactive) | GI50 (TK-10): 45.4 µM (inactive) | GI50 (HT-29): > 100 µM (inactive) | GI50 (UACC-62): > 100 µM (inactive) | GI50 (EKVX): > 100 µM (inactive) | GI50 (CCRF-CEM): > 100 µM (inactive) | GI50 (SF-268): 33.3 µM (inactive) | GI50 (NCI/ADR-RES): > 100 µM (inactive) | GI50 (SK-MEL-5): > 100 µM (inactive) | GI50 (M14): > 100 µM (inactive) | GI50 (OVCAR-5): > 100 µM (inactive) | GI50 (SNB-75): 38.8 µM (inactive) | GI50 (DU-145): > 100 µM (inactive) | GI50 (SF-295): 21.7 µM (inactive) | GI50 (SF-539): 82.4 µM (inactive) | GI50 (MDA-MB-231): 46.8 µM (inactive) | GI50 (SK-OV-3): 53.6 µM (inactive) | GI50 (Malme-3M): > 100 µM (inactive) | GI50 (NCI-H23): > 100 µM (inactive) | GI50 (NCI-H522): > 100 µM (inactive) | GI50 (UO-31): 42.6 µM (inactive) | GI50 (A549): > 100 µM (inactive) | GI50 (RPMI-8226): > 100 µM (inactive) | GI50 (MOLT-4): > 100 µM (inactive) | GI50 (MCF7): > 100 µM (inactive) | GI50 (CAKI-1): 81.7 µM (inactive) | GI50 (SW-620): > 100 µM (inactive) | GI50 (K562): > 100 µM (inactive) | GI50 (SR): > 100 µM (inactive) | GI50 (786-0): > 100 µM (inactive) | GI50 (RXF 393): 42.6 µM (inactive) | GI50 (NCI-H226): 21.7 µM (inactive) | GI50 (OVCAR-4): > 100 µM (inactive) | GI50 (UACC-257): > 100 µM (inactive) | GI50 (SNB-19): 23.7 µM (inactive) | GI50 (COLO 205): > 100 µM (inactive) | GI50 (T47D): > 100 µM (inactive) | GI50 (KM12): > 100 µM (inactive) | GI50 (MDA-N): > 100 µM (inactive) | GI50 (SK-MEL-2): 75.3 µM (inactive) | GI50 (OVCAR-8): 32.4 µM (inactive) | GI50 (HL-60): > 100 µM (inactive) | GI50 (HCT-15): > 100 µM | GI50 (BT-549): 27.9 µM (inactive) | GI50 (SN12C): 53.5 µM (inactive) | GI50 (PC-3): > 100 µM (inactive) | GI50 (HCT-116): > 100 µM (inactive) | GI50 (Hs-578T): 30.3 µM (inactive) | GI50 (HOP-92): 31.4 µM (inactive)
